Measurements reported in patent US8426406B2, “Glucocorticoid receptor agonist comprising 2,2,4-trimethyl-6-phenyl-1,2-dihydroquinoline derivatives having substituted oxy group” (Santen Pharmaceutical Co., Ltd., priority 2008, dated 2013).

Tests used:
[1] = test system: allergic conjunctivitis model in mice; test: Inhibitory effect on the vascular hyper-permeability in allergic conjunctivitis model; format: in vivo; settings: Mus musculus, 1% (W/V) test compound suspension instilled to the right eye three times before ovalbumin instillation, dye leakage vs vehicle, mean of 5-6 eyes, read-out: The inhibition ratio of the vascular hyper-permeability (%)
Experimental: In order to evaluate anti-allergic effect, inhibitory effect on the vascular hyper-permeability in allergic conjunctivitis model in mice was examined. This effect was calculated based on dye leakages of vehicle-treated group (control group) and test compound-treated group.
By adding 0.5% polysorbate 80/saline to the test compound, a 1% (W/V) test compound suspension was prepared.
1) Ovalbumin absorbed on aluminum hydroxide gel was dissolved in saline (20 μg ovalbumin/mL), and male BALE/c mice, 6 weeks old, were actively sensitized to the antigen by intraperitoneal injections of 500 μL of it.
2) On the 6th day from sensitization, sensitized mice were boosted by additional intraperitoneal injections of 500 μL ovalbumin absorbed on aluminum hydroxide gel (20 μg ovalbumin/mL).
3) On the 11th day, 12th day, 13th day, 14th day and 15th day from the first sensitization, allergic conjunctivitis were induced by installations to the right eyes of the mice of […] of 50% glycerol solution containing 15% (W/V) ovalbumin.
4) […] of test compound suspension per eye was instilled to the right eye of the above mice 15 min, 1 hr and 3 hrs before ovalbumin instillation (three times) on the 15th day from sensitization. In vehicle-treated group (control group), the mice were instilled with 0.5% polysorbate 80/saline in substitution for test compound suspension.
5) Just before ovalbumin instillation on the 15th day from sensitization, all animals received a tail intravenous injection of 0.1% Evans blue dye. The right periocular tissues of the mice, which were the leaked parts of dye, were collected 30 min after ovalbumin instillation. The dye was extracted from the tissues with the dye extraction liquid. Then the absorbance of the dye extract was measured. The dye leakage was calculated from the absorbance value, and the inhibition ratio of the vascular hyper-permeability of test compound-treated group was calculated according to calculation equation 1. The inhibition ratio of the vascular hyper-permeability of test compound-treated group(%)=(1−Ax/Ao)×100 (Calculation Equation 1) Ao: Dye leakage in vehicle-treated group (control group) Ax: Dye leakage in test compound-treated group (Test Results and Discussion)

[2] = test system: IL-6 production induced by lipopolysaccharide (LPS) in human corneal epithelial cells; test: Evaluation test for GR agonist activity: inhibition of LPS-induced IL-6 production in human corneal epithelial cells (HCE-T); format: cell-based; settings: Corneal epithelial cell, 10 μL of 100 μM test compound solution per well, 4 hours incubation, efficacy relative to DEX
How it was run: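 SV40-immortalized HCE-T cells were treated with test compound (100 μM solution, stock before dilution into well) plus LPS (1 μg/mL solution, likewise pre-dilution) for 4 hours in 10% FBS-DMEM/F12. IL-6 in supernatants was measured by HTRF. Inhibition was calculated relative to LPS-plus-DMSO and no-LPS controls, and efficacy was expressed as % of DEX inhibition.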

`COc1cc(OC(=O)c2cccnc2)ccc1-c1ccc2c(c1CNc1cc(F)ccc1C)C(C)=CC(C)(C)N2` [Compound 1-105, 5-(5-Fluoro-2-methylphenylaminomethyl)-6-[2-methoxy-4-(pyridin-3-ylcarbonyloxy)phenyl]-2,2,4-trimethyl-1,2-dihydroquinoline] showed an inhibition in vivo at 10000 µg/mL [1] of 18% and an Emax [2] of 97%.

`CCC(=O)Oc1ccc(OC)c(-c2ccc3c(c2COc2cc(F)ccc2C)C(C)=CC(C)(C)N3)c1` [Compound 1-18, 5-(5-Fluoro-2-methylphenoxymethyl)-6-(2-methoxy-5-propionyloxyphenyl)-2,2,4-trimethyl-1,2-dihydroquinoline] gave an inhibition in vivo at 10000 µg/mL [1] of 30% and an Emax [2] of 77%.

In the case of `COc1ccccc1C(=O)Oc1ccc(-c2ccc3c(c2COC(=O)c2ccc(C)s2)C(C)=CC(C)(C)N3)c(OC)c1` [Compound 1-136, 6-[2-Methoxy-4-(2-methoxybenzoyloxy)phenyl]-5-(5-methylthiophen-2-ylcarbonyloxymethyl)-2,2,4-trimethyl-1,2-dihydroquinoline], the inhibition in vivo at 10000 µg/mL [1] is reported as 15% and the Emax [2] is reported as 89%.

`COc1ccccc1NCc1c(-c2ccc(OC(=O)c3cccnc3)cc2OC)ccc2c1C(C)=CC(C)(C)N2` [Compound 1-97, 5-(2-Methoxyphenylaminomethyl)-6-[2-methoxy-4-(pyridin-3-ylcarbonyloxy)phenyl]-2,2,4-trimethyl-1,2-dihydroquinoline] gave an inhibition in vivo at 10000 µg/mL [1] of 21% and an Emax [2] of 81%.

With `COc1cc(OC(=O)c2ccco2)ccc1-c1ccc2c(c1COC(=O)c1ccc(C)s1)C(C)=CC(C)(C)N2` [Compound 1-138, 6-[4-(Furan-2-ylcarbonyloxy)-2-methoxyphenyl]-5-(5-methylthiophen-2-ylcarbonyloxymethyl)-2,2,4-trimethyl-1,2-dihydroquinoline] the inhibition in vivo at 10000 µg/mL [1] was 16% and the Emax [2] was 79%.

`COc1ccccc1NCc1c(-c2ccc(OC(=O)c3ccncc3)cc2OC)ccc2c1C(C)=CC(C)(C)N2` [Compound 1-102, 5-(2-Methoxyphenylaminomethyl)-6-[2-methoxy-4-(pyridin-4-ylcarbonyloxy)phenyl]-2,2,4-trimethyl-1,2-dihydroquinoline] gave an inhibition in vivo at 10000 µg/mL [1] of 16% and an Emax [2] of 99%.

`COc1cc(OC(=O)c2ccccc2Cl)ccc1-c1ccc2c(c1COc1cc(F)ccc1C)C(C)=CC(C)(C)N2` [Compound 1-7, 6-[4-(2-Chlorobenzoyloxy)-2-methoxyphenyl]-5-(5-fluoro-2-methylphenoxymethyl)-2,2,4-trimethyl-1,2-dihydroquinoline] was tested, and the inhibition in vivo at 10000 µg/mL [1] was 28% and the Emax [2] was 78%.

`COc1cc(OC(=O)c2cccnc2)ccc1-c1ccc2c(c1COC(=O)c1ccc(C)s1)C(C)=CC(C)(C)N2` [Compound 1-137, 6-[2-Methoxy-4-(pyridin-3-ylcarbonyloxy)phenyl]-5-(5-methylthiophen-2-ylcarbonyloxymethyl)-2,2,4-trimethyl-1,2-dihydroquinoline] gave an inhibition in vivo at 10000 µg/mL [1] of 26% and an Emax [2] of 83%.

Compound `COc1cc(OC(=O)c2ccccc2Cl)ccc1-c1ccc2c(c1COC(=O)c1ccc(C)s1)C(C)=CC(C)(C)N2` [Compound 1-139, 6-[4-(2-Chlorobenzoyloxy)-2-methoxyphenyl]-5-(5-methylthiophen-2-ylcarbonyloxymethyl)-2,2,4-trimethyl-1,2-dihydroquinoline] has an inhibition in vivo at 10000 µg/mL [1] of 15% and an Emax [2] of 104%.
